Test results from patent US20240109918A1, “HETEROCYCLIC COMPOUNDS AND USES THEREOF” (Kumquat Biosciences Inc., priority 2022, published 2024).

Experiments:
KRASG12D = target: T1, KRASG12D (Homo sapiens, UniProt P01116, G12D); assay: Bio-Biochem-PPI-HTRF Ras-SOS1 interaction assay (KRAS G12D); assay type: biochemical; conditions: 5 nM
T1 construct: made in house; host or cells: E. coli BL21 (DE3)
Summary of the method: (§1)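 HTRF measurement of GST-K-Ras (wt or G12D) binding to His-hSOS1, via anti-GST-Eu(K) donor and anti-6His-XL665 acceptor, in HEPES pH 7.4 buffer with NaCl, DTT, BSA and Igepal. Read after ≥10 min; compounds in duplicate from 10 μM down to 0.01 μM. IC50 from 665/620 nm ratio.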

KRASwt = target: T2, KRASwt (Homo sapiens, UniProt P01116); assay: Bio-Biochem-PPI-HTRF Ras-SOS1 interaction assay (KRAS wt); assay type: biochemical; conditions: 5 nM
T2 construct: made in house; host or cells: E. coli BL21 (DE3)
T2 sequence (P01116 1-188 isoform P01116-2): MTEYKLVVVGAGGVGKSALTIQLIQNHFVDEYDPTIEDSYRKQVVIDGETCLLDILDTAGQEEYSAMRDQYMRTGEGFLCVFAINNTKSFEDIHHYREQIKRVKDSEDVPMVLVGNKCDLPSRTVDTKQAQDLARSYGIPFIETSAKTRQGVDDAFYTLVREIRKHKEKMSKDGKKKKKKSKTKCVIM
Summary of the method: as §1

T1 sequence (P01116 1-188 isoform P01116-2 G12D): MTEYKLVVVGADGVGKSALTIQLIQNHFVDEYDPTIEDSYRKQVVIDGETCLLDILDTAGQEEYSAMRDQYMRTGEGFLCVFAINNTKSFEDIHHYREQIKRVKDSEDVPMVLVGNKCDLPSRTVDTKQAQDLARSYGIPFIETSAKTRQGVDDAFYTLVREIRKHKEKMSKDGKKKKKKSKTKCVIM

SMILES	IC50 (KRASG12D) [µM]	IC50 (KRASwt) [µM]
N#Cc1c(N)sc2c(F)ccc(-c3c(Cl)cc4c(N5CCCCC6(CN(C(=O)/C=C/C(F)(F)F)C6)C5)nc(OC[C@@]56CCCN5C[C@H](F)C6)nc4c3F)c12 [compound 207, 2-amino-4-(6-chloro-8-fluoro-2-(((2R,7aS)-2-fluorotetrahydro-1H-pyrrolizin-7a(5H)-yl)methoxy)-4-(2-((E)-4,4,4-trifluorobut-2-enoyl)-2,6-diazaspiro [3.6]decan-6-yl)quinazolin-7-yl)-7-fluorobenzo[b]thiophene-3-carbonitrile]	< 5	< 5
N#Cc1c(N)sc2c(F)ccc(-c3c(Cl)cc4c(N5CC(F)(F)C6(CN(C(=O)C(F)F)C6)C5)nc(OC[C@@]56CCCN5C[C@H](F)C6)nc4c3F)c12 [compound 330, 2-amino-4-(6-chloro-4-(2-(2,2-difluoroacetyl)-8,8-difluoro-2,6-diazaspiro [3.4]octan-6-yl)-8-fluoro-2-(((2R,7aS)-2-fluorotetrahydro-1H-pyrrolizin-7a(5H)-yl)methoxy)quinazolin-7-yl)-7-fluorobenzo[b]thiophene-3-carbonitrile]	< 5	< 5
N#Cc1c(N)sc2c(F)ccc(-c3c(Cl)cc4c(N5CCCCC6(CN(C(=O)N7CCCC7)C6)C5)nc(OC[C@@]56CCCN5C[C@H](F)C6)nc4c3F)c12 [compound 231, 2-amino-4-(6-chloro-8-fluoro-2-(((2R,7aS)-2-fluorotetrahydro-1H-pyrrolizin-7a(5H)-yl)methoxy)-4-(2-(pyrrolidine-1-carbonyl)-2,6-diazaspiro[3.6]decan-6-yl)quinazolin-7-yl)-7-fluorobenzo[b]thiophene-3-carbonitrile]	< 5	< 5
N#Cc1c(N)sc2c(F)ccc(-c3c(Cl)cc4c(N5CCCCC6(CN(C(=O)C78CC(C(F)(F)F)(C7)C8)C6)C5)nc(OC[C@@]56CCCN5C[C@H](F)C6)nc4c3F)c12 [compound 237, 2-amino-4-(6-chloro-8-fluoro-2-(((2R,7aS)-2-fluorotetrahydro-1H-pyrrolizin-7a(5H)-yl)methoxy)-4-(2-(3-(trifluoromethyl)bicyclo[1.1.1]pentane-1-carbonyl)-2,6-diazaspiro[3.6]decan-6-yl)quinazolin-7-yl)-7-fluorobenzo[b]thiophene-3-carbonitrile]	< 5	< 5
N#Cc1c(N)sc2c(F)ccc(-c3c(Cl)cc4c(N5CCCCC6(CN(C(=O)N7CCC7)C6)C5)nc(OC[C@@]56CCCN5C[C@H](F)C6)nc4c3F)c12 [compound 272, 2-amino-4-(4-(2-(azetidine-1-carbonyl)-2,6-diazaspiro[3.6]decan-6-yl)-6-chloro-8-fluoro-2-(((2R,7aS)-2-fluorotetrahydro-1H-pyrrolizin-7a(5H)-yl)methoxy)quinazolin-7-yl)-7-fluorobenzo[b]thiophene-3-carbonitrile]	< 5	< 5
CN(C)C/C=C/C(=O)N1CC2(CCCN(c3nc(OC[C@@]45CCCN4C[C@H](F)C5)nc4c(F)c(-c5ccc(F)c6sc(N)nc56)c(Cl)cc34)C2)C1 [compound 181, (E)-1-(6-(7-(2-amino-7-fluorobenzo[d]thiazol-4-yl)-6-chloro-8-fluoro-2-(((2R,7aS)-2-fluorotetrahydro-1H-pyrrolizin-7a(5H)-yl)methoxy)quinazolin-4-yl)-2,6-diazaspiro[3.5]nonan-2-yl)-4-(dimethylamino)but-2-en-1-one]	< 5	< 5
CC(=O)N1CC2(CCN(c3nc(OC[C@@]45CCCN4C[C@H](F)C5)nc4c(F)c(-c5ccc(F)c6sc(N)nc56)c(Cl)cc34)CC2)C1 [compound 165, 1-(7-(7-(2-amino-7-fluorobenzo[d]thiazol-4-yl)-6-chloro-8-fluoro-2-(((2R,7aS)-2-fluorotetrahydro-1H-pyrrolizin-7a(5H)-yl)methoxy)quinazolin-4-yl)-2,7-diazaspiro[3.5]nonan-2-yl)ethan-1-one]	< 5	< 5
CN1CCC[C@H]1COc1nc(N2CCCC3(CN(C(N)=O)C3)C2)c2cc(Cl)c(-c3cccc4sc(N)nc34)c(F)c2n1 [compound 124, 6-(7-(2-aminobenzo[d]thiazol-4-yl)-6-chloro-8-fluoro-2-(((S)-1-methylpyrrolidin-2-yl)methoxy)quinazolin-4-yl)-2,6-diazaspiro[3.5]nonane-2-carboxamide]	< 5	< 5
Nc1nc2c(-c3c(Cl)cc4c(N5CCOC6(CNC6)C5)nc(OC[C@@]56CCCN5C[C@H](F)C6)nc4c3F)ccc(F)c2s1 [compound 107, 4-(6-chloro-8-fluoro-2-(((2R,7aS)-2-fluorotetrahydro-1H-pyrrolizin-7a(5H)-yl)methoxy)-4-(5-oxa-2,8-diazaspiro[3.5]nonan-8-yl)quinazolin-7-yl)-7-fluorobenzo[d]thiazol-2-amine]	< 5	< 5
NC(=O)N1CC2(CCN(c3nc(OC[C@@]45CCCN4C[C@H](F)C5)nc4c(F)c(-c5ccc(F)c6sc(N)nc56)c(Cl)cc34)CC2)C1 [compound 157, 7-(7-(2-amino-7-fluorobenzo [d]thiazol-4-yl)-6-chloro-8-fluoro-2-(((2R,7aS)-2-fluorotetrahydro-1H-pyrrolizin-7a(5H)-yl)methoxy)quinazolin-4-yl)-2,7-diazaspiro[3.5]nonane-2-carboxamide]	< 5	< 5
CN(C)C/C=C/C(=O)N1CC2(C1)CN(c1nc(OC[C@@]34CCCN3C[C@H](F)C4)nc3c(F)c(-c4ccc(F)c5sc(N)nc45)c(Cl)cc13)CCO2 [compound 178, (E)-1-(8-(7-(2-amino-7-fluorobenzo[d]thiazol-4-yl)-6-chloro-8-fluoro-2-(((2R,7aS)-2-fluorotetrahydro-1H-pyrrolizin-7a(5H)-yl)methoxy)quinazolin-4-yl)-5-oxa-2,8-diazaspiro[3.5]nonan-2-yl)-4-(dimethylamino)but-2-en-1-one]	< 5	< 5
CC(C)NC(=O)N1CC2(CC(Nc3nc(OCC45CCCN4C[C@H](F)C5)nc4c(F)c(-c5ccc(F)c6sc(N)c(C#N)c56)c(Cl)cc34)C2)C1 (stereo partly drawn) [compound 151, 6-((7-(2-amino-3-cyano-7-fluorobenzo[b]thiophen-4-yl)-6-chloro-8-fluoro-2-(((2R)-2-fluorotetrahydro-1H-pyrrolizin-7a(5H)-yl)methoxy)quinazolin-4-yl)amino)-N-isopropyl-2-azaspiro[3.3]heptane-2-carboxamide]	< 5	< 5
C[C@@H](O)C(=O)N1CC2(CCCCN(c3nc(OC[C@@]45CCCN4C[C@H](F)C5)nc4c(F)c(-c5ccc(F)c6sc(N)c(C#N)c56)c(Cl)cc34)C2)C1 [compound 243, 2-amino-4-(6-chloro-8-fluoro-2-(((2R,7aS)-2-fluorotetrahydro-1H-pyrrolizin-7a(5H)-yl)methoxy)-4-(2-((R)-2-hydroxypropanoyl)-2,6-diazaspiro[3.6]decan-6-yl)quinazolin-7-yl)-7-fluorobenzo[b] thiophene-3-carbonitrile]	< 5	< 5
C#Cc1c(F)ccc2cc(O)cc(-c3ccc4c(N5CCCCC6(CN(C(=O)[C@@H]7CC7(F)F)C6)C5)nc(OC[C@@]56CCCN5C[C@H](F)C6)nc4c3F)c12 [compound 260, ((S)-2,2-difluorocyclopropyl) (6-(7-(8-ethynyl-7-fluoro-3-hydroxynaphthalen-1-yl)-8-fluoro-2-(((2R,7aS)-2-fluorotetrahydro-1H-pyrrolizin-7a(5H)-yl)methoxy)quinazolin-4-yl)-2,6-diazaspiro[3.6]decan-2-yl)methanone]	< 5	< 5
C#Cc1c(F)ccc2cc(O)cc(-c3ncc4c(N5CCOCC6(CN(C(=O)[C@H]7CC7(F)F)C6)C5)nc(OC[C@@]56CCCN5C[C@H](F)C6)nc4c3F)c12 [compound 316, ((R)-2,2-difluorocyclopropyl) (9-(7-(8-ethynyl-7-fluoro-3-hydroxynaphthalen-1-yl)-8-fluoro-2-(((2R,7aS)-2-fluorotetrahydro-1H-pyrrolizin-7a(5H)-yl)methoxy)pyrido[4,3-d]pyrimidin-4-yl)-6-oxa-2,9-diazaspiro[3.6]decan-2-yl)methanone]	< 5	< 5
N#Cc1c(N)sc2c(F)ccc(-c3c(Cl)cc4c(N5CCOC6(CN(C(=O)c7cn[nH]n7)C6)C5)nc(OC[C@@]56CCCN5C[C@H](F)C6)nc4c3F)c12 [compound 163, 4-(4-(2-(2H-1,2,3-triazole-4-carbonyl)-5-oxa-2,8-diazaspiro[3.5]nonan-8-yl)-6-chloro-8-fluoro-2-(((2R,7aS)-2-fluorotetrahydro-1H-pyrrolizin-7a(5H)-yl)methoxy)quinazolin-7-yl)-2-amino-7-fluorobenzo[b]thiophene-3-carbonitrile]	< 5	< 5
N#Cc1c(N)sc2c(F)ccc(-c3c(Cl)cc4c(N5CCCCC6(CN(C(=O)C7(C(F)F)CC7)C6)C5)nc(OC[C@@]56CCCN5C[C@H](F)C6)nc4c3F)c12 [compound 276, 2-amino-4-(6-chloro-4-(2-(1-(difluoromethyl)cyclopropane-1-carbonyl)-2,6-diazaspiro[3.6]decan-6-yl)-8-fluoro-2-(((2R,7aS)-2-fluorotetrahydro-1H-pyrrolizin-7a(5H)-yl)methoxy)quinazolin-7-yl)-7-fluorobenzo[b]thiophene-3-carbonitrile]	< 5	< 5
N#Cc1c(N)sc2c(F)ccc(-c3c(Cl)cc4c(N5CCCC6(CN(C(=O)N7CC(C#N)C7)C6)C5)nc(OC[C@@]56CCCN5C[C@H](F)C6)nc4c3F)c12 [compound 308, 1-(6-(7-(2-amino-3-cyano-7-fluorobenzo[b]thiophen-4-yl)-6-chloro-8-fluoro-2-(((2R,7aS)-2-fluorotetrahydro-1H-pyrrolizin-7a(5H)-yl)methoxy)quinazolin-4-yl)-2,6-diazaspiro[3.5]nonane-2-carbonyl)azetidine-3-carbonitrile]	< 5	< 5
